Laboratory results from US7759337B2, “Phthalazine compounds and methods of use” (Amgen Inc., priority 2005, dated 2010).

These compounds were tested on production of TNF by monocytes activated with bacterial lipopolysaccharide (LPS) (assay: Lipopolysaccharide-activated monocyte TNF production assay). Details: Homo sapiens; whole blood monocyte assay (LPS induced TNF release).
Type: cell-based
Summary of the method: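 Adherent human PBMC-derived monocytes preincubated 60 min with nine two-fold compound dilutions, then stimulated with E. coli K532 LPS (30 ng/mL in the added medium) for 4 h at 37 °C. Supernatant TNF measured by sandwich ELISA; IC50 is the compound concentration halving TNF production, from second-order polynomial fits.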

Compound | IC50
COc1ccc(-c2nncc3cc(-c4cc(C(=O)NC5CC5)ccc4C)ccc23)c(C)c1 [Example 242, N-cyclopropyl-3-[1-(4-methoxy-2-methylphenyl)phthalazin-6-yl]-4-methylbenzamide] | ≤ 5 µM
Cc1ccccc1-c1nncc2cc(Oc3cccc(C(=O)O)c3)ccc12 [Example 354, 3-{[1-(2-methylphenyl)phthalazin-6-yl]oxy}benzoic acid] | ≤ 5 µM
Cc1ccc(-c2nncc3cc(-c4cc(C(=O)NC5CC5)ccc4C)ccc23)c(Cl)n1 [Example 212, 3-[1-(2-chloro-6-methylpyridin-3-yl)phthalazin-6-yl]-N-cyclopropyl-4-methylbenzamide] | ≤ 5 µM
Cc1ccc(C(=O)NC2CC2)cc1-c1ccc2c(-c3ccccc3)nncc2c1 [Example 250, N-cyclopropyl-4-methyl-3-(1-phenylphthalazin-6-yl)benzamide] | ≤ 5 µM
Cc1ccccc1-c1nncc2cc(-c3c(C)ccc4c(NC5CC5)noc34)ccc12 [Example 374, N-cyclopropyl-6-methyl-7-[1-(2-methylphenyl)phthalazin-6-yl]-1,2-benzisoxazol-3-amine] | ≤ 5 µM
CC[C@H](C)Oc1nncc2cc(-c3cc(C(=O)NC4CC4)ccc3C)ccc12 [Example 302, N-cyclopropyl-4-methyl-3-(1-{[(1S)-1-methylpropyl]oxy}phthalazin-6-yl)benzamide] | ≤ 5 µM
CCN(CC)CCNc1nncc2cc(-c3cc(C(=O)NC4CC4)ccc3C)ccc12 [Example 186, N-cyclopropyl-3-(1-{[2-(diethylamino)ethyl]amino}phthalazin-6-yl)-4-methylbenzamide] | ≤ 5 µM
COCCNc1nncc2cc(-c3cc(C(=O)NC4CC4)ccc3C)ccc12 [Example 194, N-cyclopropyl-3-{1-[(2-methoxyethyl)amino]phthalazin-6-yl}-4-methylbenzamide] | ≤ 5 µM
CC[C@H](C)Nc1nncc2cc(-c3c(C)ccc4c(NC)noc34)ccc12 [Example 365, 6-[6-methyl-3-(methylamino)-1,2-benzisoxazol-7-yl]-N-[(1S)-1-methylpropyl]phthalazin-1-amine] | ≤ 5 µM
Cc1ccc(C(N)=O)cc1-c1ccc2c(N3CCN4CCC[C@H]4C3)nncc2c1 [Example 282, 3-{1-[(8aS)-hexahydropyrrolo[1,2-a]pyrazin-2(1H)-yl]phthalazin-6-yl}-4-methylbenzamide] | ≤ 5 µM
Cc1ccc(C(=O)NC2CC2)cc1-c1ccc2c(-c3c[nH]c(=O)cc3C)nncc2c1 [Example 287, N-cyclopropyl-4-methyl-3-[1-(4-methyl-6-oxo-1,6-dihydropyridin-3-yl)phthalazin-6-yl]benzamide] | ≤ 5 µM
Cc1ccccc1Oc1nncc2cc(-c3cc(C(N)=O)ccc3C)ccc12 [Example 299, 4-methyl-3-[1-(2-methylphenoxy)phthalazin-6-yl]benzamide] | ≤ 5 µM
CC(=O)N1CCN(c2nncc3cc(-c4cc(C(=O)N(C(C)=O)C5CC5)ccc4C)ccc23)CC1 [Example 66, N-acetyl-3-(1-(4-acetylpiperazin-1-yl)phthalazin-6-yl)-N-cyclopropyl-4-methylbenzamide] | ≤ 5 µM
Cc1ccc(C(=O)NC2CC2)cc1-c1ccc2c(Oc3cccnc3C)nncc2c1 [Example 308, N-cyclopropyl-4-methyl-3-{1-[(2-methylpyridin-3-yl)oxy]phthalazin-6-yl}benzamide] | ≤ 5 µM
Cc1ccc(C(=O)NC2CC2)cc1-c1ccc2c(C(N)=O)nncc2c1 [Example 83, 6-{5-[(Cyclopropylamino)carbonyl]-2-methylphenyl}phthalazine-1-carboxamide] | ≤ 5 µM
Fc1ccc(Oc2ccc3c(N4CCOCC4)nncc3c2)c(F)c1 [Example 356, 6-(2,4-difluorophenoxy)-1-morpholin-4-ylphthalazine] | ≤ 5 µM
COc1cc(F)ccc1-c1nncc2cc(-c3cc(C(N)=O)ccc3C)ccc12 [Example 213, 3-[1-(4-fluoro-2-methoxyphenyl)phthalazin-6-yl]-4-methylbenzamide] | ≤ 5 µM
Cc1ccccc1-c1nncc2cc(Oc3cccc(F)c3)ccc12 [Example 355, 6-(3-fluorophenoxy)-1-(2-methylphenyl)phthalazine] | ≤ 5 µM
Cc1ccc(C(=O)NC2CC2)cc1-c1ccc2c(N3CCN(c4c(C)cccc4C)CC3)nncc2c1 [Example 162, N-cyclopropyl-3-{1-[4-(2,6-dimethylphenyl)piperazin-1-yl]phthalazin-6-yl}-4-methylbenzamide] | ≤ 5 µM
Cc1ccc(C(=O)NC2CCC2)cc1-c1ccc2c(N3CCN4C(=O)OC[C@@H]4C3)nncc2c1 [Example 269, 3-{1-[(8aS)-3-oxotetrahydro[1,3]oxazolo[3,4-a]pyrazin-7(1H)-yl]phthalazin-6-yl}-N-cyclobutyl-4-methylbenzamide] | ≤ 5 µM
CC(=O)N1CCN(c2nncc3cc(-c4c(C)ccc5c(NC6CC6)noc45)ccc23)[C@@H](C)C1 [Example 390, 7-{1-[(2S)-4-acetyl-2-methylpiperazin-1-yl]phthalazin-6-yl}-N-cyclopropyl-6-methyl-1,2-benzisoxazol-3-amine] | ≤ 5 µM

Compound | IC50
Cc1ccc(C(=O)NC2CC2)cc1-c1ccc2c(-c3ccccc3C(N)=O)nncc2c1 [Example 98, 3-(1-(2-(aminocarbonyl)phenyl)-6-phthalazinyl)-N-cyclopropyl-4-methylbenzamide] | ≤ 5 µM
Cc1ccc(C(=O)NC2CC2)cc1-c1ccc2c(N(C)C3CCCCC3)nncc2c1 [Example 289, 3-{1-[cyclohexyl(methyl)amino]phthalazin-6-yl}-N-cyclopropyl-4-methylbenzamide] | ≤ 5 µM
Cc1ccc(C(=O)NC2CC2)cc1-c1ccc2c(N3C[C@@H](C)OC[C@@H]3C)nncc2c1 [Example 112, N-cyclopropyl-3-{1-[(2R,5S)-2,5-dimethylmorpholin-4-yl]phthalazin-6-yl}-4-methylbenzamide] | ≤ 5 µM
Cc1ccc(C(=O)NC2CC2)cc1-c1ccc2c(-c3ccc(-c4ccc(Cl)cc4)cc3)nncc2c1 [Example 208, 3-[1-(4′-chloro-1,1′-biphenyl-4-yl)phthalazin-6-yl]-N-cyclopropyl-4-methylbenzamide] | ≤ 5 µM
Cc1ccc(C(N)=O)cc1-c1ccc2c(N3CCCC3=O)nncc2c1 [Example 94, 4-methyl-3-(1-(2-oxopyrrolidine-1-yl)phthalazin-6-yl)benzamide] | ≤ 5 µM
Cc1ccc(C(=O)NC2CC2)cc1-c1cnc2c(N3CCOCC3)nncc2c1 [Example 276, N-cyclopropyl-4-methyl-3-(8-morpholin-4-ylpyrido[2,3-d]pyridazin-3-yl)benzamide] | ≤ 5 µM
Cc1ccc(C(=O)NC2CC2)cc1-c1ccc2c(C(=O)N3CCOCC3)nncc2c1 [Example 85, N-Cyclopropyl-4-methyl-3-[1-(morpholin-4-ylcarbonyl)phthalazin-6-yl]benzamide] | ≤ 5 µM
Cc1ccc(C(=O)NC2CC2)cc1-c1ccc2c(-c3ccc(C(C)(C)C)cc3)nncc2c1 [Example 253, 3-[1-(4-tert-butylphenyl)phthalazin-6-yl]-N-cyclopropyl-4-methylbenzamide] | ≤ 5 µM
CONC(=O)c1ccc(C)c(-c2ccc3c(N4CCOCC4)nncc3c2)c1 [Example 278, N-methoxy-4-methyl-3-(1-morpholin-4-ylphthalazin-6-yl)benzamide] | ≤ 5 µM
Cc1ccc(C(=O)NC2CC2)cc1-c1ccc2c(N3CCC[C@H]3C(F)(F)F)nncc2c1 [Example 273, N-cyclopropyl-4-methyl-3-{1-[(2S)-2-(trifluoromethyl)pyrrolidin-1-yl]phthalazin-6-yl}benzamide] | ≤ 5 µM
Cc1ccc(C(N)=O)cc1-c1ccc2c(N3CCNC(=O)CC3)nncc2c1 [Example 277, 4-methyl-3-[1-(5-oxo-1,4-diazepan-1-yl)phthalazin-6-yl]benzamide] | ≤ 5 µM
Cc1cc(F)ccc1Oc1nncc2cc(-c3cc(C(N)=O)ccc3C)ccc12 [Example 320, 3-[1-(4-fluoro-2-methylphenoxy)phthalazin-6-yl]-4-methylbenzamide] | ≤ 5 µM
COc1ncc(-c2nncc3cc(-c4cc(C(=O)NC5CC5)ccc4C)ccc23)c(OC)n1 [Example 234, N-cyclopropyl-3-[1-(2,4-dimethoxypyrimidin-5-yl)phthalazin-6-yl]-4-methylbenzamide] | ≤ 5 µM
Cc1cc(F)ccc1Oc1nncc2cc(-c3cc(C(=O)NC4CC4)ccc3C)ccc12 [Example 305, N-cyclopropyl-3-[1-(4-fluoro-2-methylphenoxy)phthalazin-6-yl]-4-methylbenzamide] | ≤ 5 µM
Cc1ccc(C(=O)NC2CC2)cc1-c1ccc2c(-c3ccc(Cl)cc3C(F)(F)F)nncc2c1 [Example 210, 3-{1-[4-chloro-2-(trifluoromethyl)phenyl]phthalazin-6-yl}-N-cyclopropyl-4-methylbenzamide] | ≤ 5 µM
CCOc1cc(Cl)ccc1-c1nncc2cc(-c3cc(C(N)=O)ccc3C)ccc12 [Example 238, 3-[1-(4-chloro-2-ethoxyphenyl)phthalazin-6-yl]-4-methylbenzamide] | ≤ 5 µM
Cc1ccc(C(=O)NC2CC2)cc1-c1ccc2c(NCCCN3CCCC3=O)nncc2c1 [Example 310, N-cyclopropyl-4-methyl-3-(1-{[3-(2-oxopyrrolidin-1-yl)propyl]amino}phthalazin-6-yl)benzamide] | ≤ 5 µM
Cc1ccc2c(NC3CC3)noc2c1-c1ccc2c(N3CCOC[C@@H]3C)nncc2c1 [Example 14, N-cyclopropyl-6-methyl-7-(1-((S)-3-methylmorpholino)phthalazin-6-yl)benzo[d]isoxazol-3-amine] | ≤ 5 µM
Fc1ccc(Oc2ccc3c(N4CCOCC4)nncc3c2)cc1 [Example 336, 6-(4-fluorophenoxy)-1-morpholin-4-ylphthalazine] | ≤ 5 µM
Cc1ccc(C(N)=O)cc1-c1ccc2c(N3C[C@@H](C)OC[C@H]3C)nncc2c1 [Example 171, 3-{1-[(2R,5R)-2,5-dimethylmorpholin-4-yl]phthalazin-6-yl}-4-methylbenzamide] | ≤ 5 µM
